From PMC10041525, “New Dual Inhibitors of Bacterial Topoisomerases with Broad-Spectrum Antibacterial Activity and In Vivo Efficacy against Vancomycin-Intermediate Staphylococcus aureus” (Journal of Medicinal Chemistry, 2023)
≈ marks a conversion by molar mass, not a printed value. Where two headings read alike, the source gives them in different places.

Tests used:
[1] = tested on: Haemophilus influenzae (n = 14); test: MIC broth microdilution at IHMA Europe; type: cell-based, H. influenzae; settings: for MIC: Haemophilus influenzae, read-out: MIC
E. faecium (n = 13) = test: MIC broth microdilution at IHMA Europe; type: cell-based; settings: for MIC: Enterococcus faecium, read-out: MIC
S. pneumoniae (n = 12) = test: MIC broth microdilution at IHMA Europe; type: cell-based; settings: for MIC: Streptococcus pneumoniae, read-out: MIC
P. aeruginosa ATCC 27853 = test: IHMA QC MIC; type: cell-based; settings: Pseudomonas aeruginosa, read-out: MIC
E. faecalis ATCC 29212 = test: IHMA QC MIC; type: cell-based
Source text: Supplement jm2c01905_si_004.xlsx, sheet "QC" | column: MIC [µg/mL]

MIC ([1]; H. influenzae IHMA N° 1227715): 16 µg/mL (≈ 45.8 µM)
MIC ([1]; H. influenzae IHMA N° 1241620): 4 µg/mL (≈ 11.4 µM)
MIC ([1]; H. influenzae IHMA N° 1244149): 16 µg/mL (≈ 45.8 µM)
MIC ([1]; H. influenzae IHMA N° 1249803): 2 µg/mL (≈ 5.72 µM)
MIC ([1]; H. influenzae IHMA N° 1254355): 2 µg/mL (≈ 5.72 µM)
MIC ([1]; H. influenzae IHMA N° 1258580): 16 µg/mL (≈ 45.8 µM)
MIC ([1]; H. influenzae IHMA N° 1262734): 8 µg/mL (≈ 22.9 µM)
MIC ([1]; H. influenzae IHMA N° 1272723): 16 µg/mL (≈ 45.8 µM)
MIC ([1]; H. influenzae IHMA N° 1286846): 8 µg/mL (≈ 22.9 µM)
MIC ([1]; H. influenzae IHMA N° 1337530): 32 µg/mL (≈ 91.6 µM)
MIC ([1]; H. influenzae IHMA N° 1440085): 8 µg/mL (≈ 22.9 µM)
MIC ([1]; H. influenzae IHMA N° 1479509): 8 µg/mL (≈ 22.9 µM)
MIC ([1]; H. influenzae IHMA N° 1952952): 4 µg/mL (≈ 11.4 µM)
MIC ([1]; H. influenzae IHMA N° 2047461): 32 µg/mL (≈ 91.6 µM)
Cumulative % at MIC ([1]; MIC 2 µg/mL): 14.3%
No. of isolates at MIC ([1]; MIC 2 µg/mL): 2
Cumulative % at MIC ([1]; MIC […] µg/mL): 85.7%
No. of isolates at MIC ([1]; MIC […] µg/mL): 4
Cumulative % at MIC ([1]; MIC 32 µg/mL): 100.0%
No. of isolates at MIC ([1]; MIC 32 µg/mL): 2
MIC (E. faecium (n = 13); E. faecium IHMA N° 1764866): > 32 µg/mL
MIC (E. faecium (n = 13); E. faecium IHMA N° 1765436): > 32 µg/mL
MIC (E. faecium (n = 13); E. faecium IHMA N° 1765746): > 32 µg/mL
MIC (E. faecium (n = 13); E. faecium IHMA N° 1893573): > 32 µg/mL
MIC (E. faecium (n = 13); E. faecium IHMA N° 1893846): > 32 µg/mL
MIC (E. faecium (n = 13); E. faecium IHMA N° 1893942): > 32 µg/mL
MIC (E. faecium (n = 13); E. faecium IHMA N° 1894055): > 32 µg/mL
MIC (E. faecium (n = 13); E. faecium IHMA N° 1897027): > 32 µg/mL
MIC (E. faecium (n = 13); E. faecium IHMA N° 1897101): > 32 µg/mL
MIC (E. faecium (n = 13); E. faecium IHMA N° 1904592): > 32 µg/mL
MIC (E. faecium (n = 13); E. faecium IHMA N° 2075051): > 32 µg/mL
MIC (E. faecium (n = 13); E. faecium IHMA N° 2077718): > 32 µg/mL
MIC (E. faecium (n = 13); E. faecium IHMA N° 2083787): > 32 µg/mL
Cumulative % at MIC (E. faecium (n = 13); MIC >32 µg/mL): 100.0%
No. of isolates at MIC (E. faecium (n = 13); MIC >32 µg/mL): 13
Cumulative % at MIC (S. pneumoniae (n = 12); MIC 0.5 µg/mL): 25.0%
No. of isolates at MIC (S. pneumoniae (n = 12); MIC 0.5 µg/mL): 2
Cumulative % at MIC (S. pneumoniae (n = 12); MIC 1 µg/mL): 33.3%
No. of isolates at MIC (S. pneumoniae (n = 12); MIC 1 µg/mL): 1
Cumulative % at MIC (S. pneumoniae (n = 12); MIC 2 µg/mL): 66.7%
No. of isolates at MIC (S. pneumoniae (n = 12); MIC 2 µg/mL): 4
No. of isolates at MIC (S. pneumoniae (n = 12); MIC […] µg/mL): 2
Cumulative % at MIC (S. pneumoniae (n = 12); MIC ≤0.03 µg/mL): 8.3%
No. of isolates at MIC (S. pneumoniae (n = 12); MIC ≤0.03 µg/mL): 1
MIC (S. pneumoniae (n = 12); S. pneumoniae IHMA N° 1775387): 4 µg/mL (≈ 11.4 µM)
MIC (S. pneumoniae (n = 12); S. pneumoniae IHMA N° 1776057): 2 µg/mL (≈ 5.72 µM)
MIC (S. pneumoniae (n = 12); S. pneumoniae IHMA N° 1785617): 8 µg/mL (≈ 22.9 µM)
MIC (S. pneumoniae (n = 12); S. pneumoniae IHMA N° 1800765): 0.5 µg/mL (≈ 1.43 µM)
MIC (S. pneumoniae (n = 12); S. pneumoniae IHMA N° 1811259): 2 µg/mL (≈ 5.72 µM)
MIC (S. pneumoniae (n = 12); S. pneumoniae IHMA N° 1831562): ≤ 0.03 µg/mL
MIC (S. pneumoniae (n = 12); S. pneumoniae IHMA N° 1902609): 4 µg/mL (≈ 11.4 µM)
MIC (S. pneumoniae (n = 12); S. pneumoniae IHMA N° 1979675): 2 µg/mL (≈ 5.72 µM)
MIC (S. pneumoniae (n = 12); S. pneumoniae IHMA N° 1991963): 1 µg/mL (≈ 2.86 µM)
MIC (S. pneumoniae (n = 12); S. pneumoniae IHMA N° 2057487): 2 µg/mL (≈ 5.72 µM)
MIC (S. pneumoniae (n = 12); S. pneumoniae IHMA N° 2073087): 8 µg/mL (≈ 22.9 µM)
MIC (S. pneumoniae (n = 12); S. pneumoniae IHMA N° 2117109): 0.5 µg/mL (≈ 1.43 µM)
MIC (P. aeruginosa ATCC 27853; ATCC27853, QC strain P. aeruginosa ATCC 27853, test date 2021-11-11): > 32 µg/mL
MIC (P. aeruginosa ATCC 27853; ATCC27853, QC strain P. aeruginosa ATCC 27853, test date 2021-11-26): > 32 µg/mL
MIC (E. faecalis ATCC 29212; Enterococcus faecalis, ATCC29212, QC strain E. faecalis ATCC 29212, test date 2021-11-11, read-out: MIC): 1 µg/mL (≈ 2.86 µM)
MIC (E. faecalis ATCC 29212; QC strain E. faecalis ATCC 29212, test date 2021-11-26): 1 µg/mL (≈ 2.86 µM)
Structure (SMILES): CC1(C)S[C@@H]2[C@H](NC(=O)[C@H](N)c3ccccc3)C(=O)N2[C@H]1C(=O)O [Ampicillin, ampicillin]
